These results are taken from patent publication US7205127B2 (priority 2002, dated 2007).

The test system of series [1] is differentiated L6 cells. In words: 2-deoxy-glucose transport (glucose uptake) assay in differentiated L6 myotubes. It counts as cell-based, rat. The protocol:
Rat skeletal muscle L6-K cells were grown in minimal essential medium (α-MEM Glutamax I) containing 10% fetal bovine serum at 37° C., 5% CO2. The cells were passaged twice weekly by treatment with trypsin-EDTA and transfer of ⅓ of the cells to new flasks with fresh culture medium. For differentiation into myotubes, 30,000 cells were seeded in 1 ml in 24-well plates. When the cells were confluent, usually after 3 days, the medium was replaced by differentiation medium consisting of α-MEM, 2% fetal bovine serum and penicillin/streptomycin at a concentration of 100 U/ml and 100 μg/ml, respectively. The medium was replaced every 2–3 days. Between days 4–7, differentiation medium containing 1 mM cytidine was used. The cells were differentiated for 8–10 days before being used in experiments.
On the day before the glucose transport assay, the wells of the culture plate were emptied and 1 ml serum free DMEM containing 5 mM glucose and penicillin/streptomycin was added. In some experiments the cells were treated over night with test compounds in 1 ml and additional treatments were added the next day to give a total volume of 2 ml. In these experiments, insulin (100–1000 nM) was added in 0.2 ml. When all treatments were performed after 20–24 h in serum free medium, a total volume of 1 ml was used. The wells were emptied and 0.5 ml prewarmed PBS without Ca^2+/mg^2+ containing 1 μCi/ml radioactive 2-deoxy-glucose added. After 10 min at 37° C., the wells were emptied and washed three times with cold PBS. The cell monolayer was solubilized in 0.5 ml 0.5 M NaOH for 3 h at room temperature. 400 μl was mixed with 8 ml scintillation fluid (Optiphase, Wallac) and counted in a scintillation counter (Packard TriCarb). Two 10-μl aliquots were used for determination of protein concentration using the method according to Bradford (Anal. Biochem., 1976, 72:248–54) from BioRad.
This effect is seen when cells are stimulated with 0.1–10 μM DPI for 1 h. A bell-shaped dose response curve for DPI with an optimum at 1 μM is recorded. The effect of suboptimal concentrations of DPI during a 1 h treatment could be stimulated further if insulin is added 30 min after DPI. However, insulin has little additional effect when the maximum effect of DPI is reached in the 1 h protocol (FIG. 1). The effective concentrations at which DPI stimulates glucose transport corresponds well to the concentrations inhibiting NAD(P)H oxidase activity in cell free systems [O'Donnell et al., Biochemical Journal, 290:41–9 (1993)]. […] On the basis of the above results it is postulated that DPI enhances a constitutive activity of the insulin receptor and/or the intracellular insulin-signaling pathway.
Assuming that the enhancing effect of DPI on insulin signaling was due to inhibition of ROS production, it was investigated whether an exogenous source of H2O2 could counteract the effect of DPI. To this end, L6 cells were treated with 25 mU/ml of glucose oxidase for 30 min before addition of DPI.

For series [2], the system named is C57BL/6J ob/ob mice. As to conditions: 1 mg/kg i.p. once daily for 4 days. The method, then: Studies were conducted in vivo, in an animal model of obesity characterized by insulin resistance. Eight-month old C57BL/6J ob/ob mice (M&B A/S, Denmark) were matched for sex, weight and fasting blood glucose concentrations. The animals were injected intraperitoneally once daily with DPI (1 mg/kg) or water for 4 days. On day 5, the animals were fasted for 2.5 h and then given an i.p. injection of human insulin 0.5 U/kg (Actrapid, Novo Nordisk, Denmark) and their blood glucose levels were monitored for 4 h by sampling from the tail. The glucose concentration was determined using a Glucometer Accutrend Sensor (Roche).

The test system of series [3] is thioredoxin-gp91phox fusion protein. As to conditions: in the presence of NAD(P)H and FAD; cited from earlier work.
In series [4] the target is T1, NAD(P)H oxidase (Homo sapiens, UniProt P19878).
T1 sequence (P19878 1-526): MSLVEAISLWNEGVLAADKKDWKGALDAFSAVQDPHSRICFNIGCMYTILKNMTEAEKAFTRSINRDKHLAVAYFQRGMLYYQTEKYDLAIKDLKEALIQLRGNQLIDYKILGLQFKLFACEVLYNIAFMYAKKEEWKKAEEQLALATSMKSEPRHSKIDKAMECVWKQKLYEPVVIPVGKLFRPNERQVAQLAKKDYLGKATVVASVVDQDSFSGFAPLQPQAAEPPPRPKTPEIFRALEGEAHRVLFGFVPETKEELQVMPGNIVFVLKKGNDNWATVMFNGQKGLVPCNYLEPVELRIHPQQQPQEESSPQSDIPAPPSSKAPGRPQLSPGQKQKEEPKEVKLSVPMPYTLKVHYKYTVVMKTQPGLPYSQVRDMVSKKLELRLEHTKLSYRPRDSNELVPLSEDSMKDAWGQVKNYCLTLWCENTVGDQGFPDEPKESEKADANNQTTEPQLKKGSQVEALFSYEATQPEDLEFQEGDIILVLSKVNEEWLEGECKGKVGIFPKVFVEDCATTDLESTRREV
As to conditions: most likely via binding to p67phox; cited from earlier work.

As for “insulin: bovine insulin purchased from Sigma, used to stimulate glucose transport”, the “reduction of insulin stimulated glucose transport by glucose oxidase” value in series [1] (L6 cells treated with 25 mU/ml glucose oxidase, 200 nM insulin (FIG. 2)) stood at 65%.
As for `c1ccc2c(c1)[I+]c1ccccc1-2` [DPI, Diphenylene iodonium], the “side effects of treatment” value in series [2] (ob/ob mice) is “Without any overt side effects”. In series [2] (1–4 h after injection of insulin 0.5 U/kg (FIG. 3)), the “blood glucose levels versus control group” value is “significantly lower blood glucose levels”. The “optimum of bell-shaped dose response curve for glucose uptake” value in series [1] (1 h treatment) came out at 1 µM. In addition, the “reduction of stimulatory effect on glucose transport by glucose oxidase” value in series [1] (L6 cells treated with 25 mU/ml glucose oxidase for 30 min before addition of DPI (FIG. 2)) stood at 68%. Besides, in series [1] (cells stimulated for 1 h), the “concentrations at which the increase in glucose uptake is seen” value is 0.1 to 10 µM. Moreover, the glucose uptake result in series [1] (differentiated L6 cells incubated with DPI for 1 h (FIG. 1)) is on record as “significant increase”. In series [3], the “diaphorase activity of thioredoxin-gp91phox fusion protein” value is recorded as “inhibited”.
As to Mastoparan, in series [4], the “NAD(P)H oxidase activation” value is “inhibit NAD(P)H oxidase activation”.
